Measurements reported in patent US9931327B2, “Derivatives of 1-phenyl-2-pyridinyl alkyl alcohols as phosphodiesterase inhibitors” (Chiesi Farmaceutici S.p.A., priority 2011, dated 2018).
Structures can show the parent of a compound that is named as a salt. Where two headings read alike, the source gives them in different places.

Tested on: LPS-induced TNF-α release in peripheral blood mononuclear cells (PBMCs)
Assay: In vitro determination of PDE4 inhibitory activity in the PBMCs assay (LPS-induced TNF-α release)
Type: cell-based, human
Settings: PBMC, human PBMCs, LPS 3 ng/ml, 18 hours, read-out: PDE4 inhibition (IC50, 50% inhibition of LPS-induced TNF-α release)
How it was run: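 Cryopreserved human PBMCs (10^5 cells/well) pre-incubated 30 min with compound (10^−12 to 10^−6 M or 10^−3 to 10^−7 M), then stimulated with LPS 3 ng/ml for 18 h at 37 °C. TNF-α in medium by ELISA; IC50 as mean ± 95% confidence limits.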

Q: For `COC(=O)c1ccc(S(=O)(=O)N2CCSC2C(=O)O[C@@H](Cc2c(Cl)c[n+]([O-])cc2Cl)c2ccc(OC(F)F)c(OCC3CC3)c2)s1` (stereo partly drawn) [Compound 87, 3,5-dichloro-4-((2S)-2-(3-(cyclopropylmethoxy)-4-(difluoromethoxy)phenyl)-2-(3-(5-(methoxycarbonyl)thiophen-2-ylsulfonyl)thiazolidine-2-carbonyloxy)ethyl)pyridine 1-oxide], which IC50 (TNF-α by ELISA) is on record?
A: The IC50 was 0.1 to 1 nM.

Q: `COc1ccc(S(=O)(=O)N2CCC[C@H]2C(=O)O[C@@H](Cc2c(Cl)c[n+]([O-])cc2Cl)c2ccc(OC(F)F)c(OCC3CC3)c2)cc1OC` [Compound 53, 3,5-dichloro-4-((S)-2-(3-(cyclopropylmethoxy)-4-(difluoromethoxy)phenyl)-2-((S)-1-(3,4-dimethoxyphenylsulfonyl)pyrrolidine-2-carbonyloxy)ethyl)pyridine 1-oxide] was tested. Which IC50 (TNF-α by ELISA) did it give?
A: The IC50 was 0.1 to 1 nM.

Q: Which IC50 (TNF-α by ELISA) does the source give for `CN(C)C(=O)c1cccc(C(=O)N2CCS[C@H]2C(=O)O[C@@H](Cc2c(Cl)c[n+]([O-])cc2Cl)c2ccc(OC(F)F)c(OCC3CC3)c2)c1` [Compound 187, 3,5-dichloro-4-((S)-2-(3-(cyclopropylmethoxy)-4-(difluoromethoxy)phenyl)-2-((S)-3-(3-(dimethylcarbamoyl)benzoyl)thiazolidine-2-carbonyloxy)ethyl)pyridine 1-oxide] here?
A: Its IC50 is 0.1 to 1 nM.

Q: How did the IC50 (TNF-α by ELISA) turn out when `O=C(O[C@@H](Cc1c(Cl)c[n+]([O-])cc1Cl)c1ccc(OC(F)F)c(OCC2CC2)c1)C1SCCN1S(=O)(=O)c1ccc(N2CCOCC2)nc1` (stereo partly drawn) [Compound 74, 3,5-dichloro-4-((2S)-2-(3-(cyclopropylmethoxy)-4-(difluoromethoxy)phenyl)-2-(3-(6-morpholinopyridin-3-ylsulfonyl)thiazolidine-2-carbonyloxy)ethyl)pyridine 1-oxide] was run?
A: Its IC50 is < 0.1 nM.

Q: For `N#Cc1cc(S(=O)(=O)N2CCS[C@H]2C(=O)O[C@@H](Cc2c(Cl)c[n+]([O-])cc2Cl)c2ccc(OC(F)F)c(OCC3CC3)c2)ccc1F` [Compound 209, 3,5-dichloro-4-((S)-2-((S)-3-(3-cyano-4-fluorophenylsulfonyl)thiazolidine-2-carbonyloxy)-2-(3-(cyclopropylmethoxy)-4-(difluoromethoxy)phenyl)ethyl)pyridine 1-oxide], which IC50 (TNF-α by ELISA) is on record?
A: Its IC50 is 0.1 to 1 nM.

Q: How did the IC50 (TNF-α by ELISA) turn out when `CN1CCN(CCS(=O)(=O)N2CCS[C@H]2C(=O)O[C@@H](Cc2c(Cl)c[n+]([O-])cc2Cl)c2ccc(OC(F)F)c(OCC3CC3)c2)CC1` [Compound 288, 3,5-dichloro-4-((S)-2-(3-(cyclopropylmethoxy)-4-(difluoromethoxy)phenyl)-2-((S)-3-(2-(4-methylpiperazin-1-yl)ethylsulfonyl)thiazolidine-2-carbonyloxy)ethyl)pyridine 1-oxide] was run?
A: The IC50 was 0.1 to 1 nM.

Q: `Cn1cnc(S(=O)(=O)N2CCS[C@H]2C(=O)O[C@@H](Cc2c(Cl)c[n+]([O-])cc2Cl)c2ccc(OC(F)F)c(OCC3CC3)c2)c1` [Compound 119, 3,5-dichloro-4-((S)-2-(3-(cyclopropylmethoxy)-4-(difluoromethoxy)phenyl)-2-((S)-3-(1-methyl-1H-imidazol-4-ylsulfonyl)thiazolidine-2-carbonyloxy)ethyl)pyridine 1-oxide] was tested. Which IC50 (TNF-α by ELISA) did it give?
A: Its IC50 is < 0.1 nM.

Q: For `O=C(O[C@@H](Cc1c(Cl)c[n+]([O-])cc1Cl)c1ccc(OC(F)F)c(OCC2CC2)c1)[C@H]1NCCS1` [Compound 6, 3,5-dichloro-4-((S)-2-(3-(cyclopropylmethoxy)-4-(difluoromethoxy)phenyl)-2-((S)-thiazolidine-2-carbonyloxy)ethyl)pyridine 1-oxide hydrochloride], which IC50 (compounds of formula (II)) is on record?
A: Its IC50 is 0.1 to 1 nM.

Q: `O=C(O[C@@H](Cc1c(Cl)c[n+]([O-])cc1Cl)c1ccc(OC(F)F)c(OCC2CC2)c1)[C@H]1CCCN1S(=O)(=O)c1ccccc1` [Compound 244, 3,5-dichloro-4-((S)-2-(3-(cyclopropylmethoxy)-4-(difluoromethoxy)phenyl)-2-((R)-1-(phenylsulfonyl)pyrrolidine-2-carbonyloxy)ethyl)pyridine 1-oxide] was tested. Which IC50 (TNF-α by ELISA) did it give?
A: Its IC50 is 1 to 10 nM.

Q: Which IC50 (TNF-α by ELISA) does the source give for `O=C(O[C@@H](Cc1c(Cl)c[n+]([O-])cc1Cl)c1ccc(OC(F)F)c(OCC2CC2)c1)C1SCCN1S(=O)(=O)c1cccnc1` (stereo partly drawn) [Compound 66, 3,5-dichloro-4-((2S)-2-(3-(cyclopropylmethoxy)-4-(difluoromethoxy)phenyl)-2-(3-(pyridin-3-ylsulfonyl)thiazolidine-2-carbonyloxy)ethyl)pyridine 1-oxide] here?
A: Its IC50 is < 0.1 nM.

Q: With `O=C(O[C@@H](Cc1c(Cl)c[n+]([O-])cc1Cl)c1ccc(OC(F)F)c(OCC2CC2)c1)C1SCCN1S(=O)(=O)c1ccccc1Cl` (stereo partly drawn) [Compound 70, 3,5-dichloro-4-((2S)-2-(3-(2-chlorophenylsulfonyl)thiazolidine-2-carbonyloxy)-2-(3-(cyclopropylmethoxy)-4-(difluoromethoxy)phenyl)ethyl)pyridine 1-oxide] as the compound, how does the IC50 (TNF-α by ELISA) read?
A: Its IC50 is 0.1 to 1 nM.

Q: `O=C(OC(Cc1c(Cl)c[n+]([O-])cc1Cl)c1ccc(OC(F)F)c(OCC2CC2)c1)C1CNCCO1` (centres unmarked) [Compound 8] was tested. Which IC50 (compounds of formula (II)) did it give?
A: The IC50 was 1 to 10 nM.

Q: With `COC(=O)c1ccccc1S(=O)(=O)N1CCS[C@H]1C(=O)O[C@@H](Cc1c(Cl)c[n+]([O-])cc1Cl)c1ccc(OC(F)F)c(OCC2CC2)c1` [Compound 101, 3,5-dichloro-4-((S)-2-(3-(cyclopropylmethoxy)-4-(difluoromethoxy)phenyl)-2-((S)-3-(2-(methoxycarbonyl)phenylsulfonyl)thiazolidine-2-carbonyloxy)ethyl)pyridine 1-oxide] as the compound, how does the IC50 (TNF-α by ELISA) read?
A: Its IC50 is < 0.1 nM.

Q: `O=C(O[C@@H](Cc1c(Cl)c[n+]([O-])cc1Cl)c1ccc(OC(F)F)c(OCC2CC2)c1)C1SCCN1S(=O)(=O)CC1CC1` (stereo partly drawn) [Compound 65, 3,5-dichloro-4-((2S)-2-(3-(cyclopropylmethoxy)-4-(difluoromethoxy)phenyl)-2-(3-(cyclopropylmethylsulfonyl)thiazolidine-2-carbonyloxy)ethyl)pyridine 1-oxide] was tested. Which IC50 (TNF-α by ELISA) did it give?
A: The IC50 was 0.1 to 1 nM.

Q: `CS(=O)(=O)Nc1cc(C(=O)N2CCC[C@H]2C(=O)O[C@@H](Cc2c(Cl)c[n+]([O-])cc2Cl)c2ccc(OC(F)F)c(OCC3CC3)c2)ccc1OCC1CC1` [Compound 19, 3,5-dichloro-4-((S)-2-((S)-1-(4-(cyclopropylmethoxy)-3-(methylsulfonamido)benzoyl)pyrrolidine-2-carbonyloxy)-2-(3-(cyclopropylmethoxy)-4-(difluoromethoxy)phenyl)ethyl)pyridine 1-oxide] was tested. Which IC50 (TNF-α by ELISA) did it give?
A: Its IC50 is 1 to 10 nM.

Q: How did the IC50 (TNF-α by ELISA) turn out when `Nc1ccc(C(=O)N2CCSC2C(=O)O[C@@H](Cc2c(Cl)c[n+]([O-])cc2Cl)c2ccc(OC(F)F)c(OCC3CC3)c2)cc1` (stereo partly drawn) [Compound 26, 4-((2S)-2-(3-(4-aminobenzoyl)thiazolidine-2-carbonyloxy)-2-(3-(cyclopropylmethoxy)-4-(difluoromethoxy)phenyl)ethyl)-3,5-dichloropyridine 1-oxide] was run?
A: Its IC50 is 0.1 to 1 nM.

Q: How did the IC50 (TNF-α by ELISA) turn out when `CS(=O)(=O)c1ccc(S(=O)(=O)N2CCSC2C(=O)O[C@@H](Cc2c(Cl)c[n+]([O-])cc2Cl)c2ccc(OC(F)F)c(OCC3CC3)c2)cc1` (stereo partly drawn) [Compound 92, 3,5-dichloro-4-((2S)-2-(3-(cyclopropylmethoxy)-4-(difluoromethoxy)phenyl)-2-(3-(4-(methylsulfonyl)phenylsulfonyl)thiazolidine-2-carbonyloxy)ethyl)pyridine 1-oxide] was run?
A: The IC50 was < 0.1 nM.

Q: With `Cc1noc2ncc(S(=O)(=O)N3CCSC3C(=O)O[C@@H](Cc3c(Cl)c[n+]([O-])cc3Cl)c3ccc(OC(F)F)c(OCC4CC4)c3)cc12` (stereo in doubt) [Compound 239, 3,5-dichloro-4-((S)-2-(3-(cyclopropylmethoxy)-4-(difluoromethoxy)phenyl)-2-((S)-3-(3-methylisoxazolo[5,4-b]pyridin-5-ylsulfonyl)thiazolidine-2-carbonyloxy)ethyl)pyridine 1-oxide] as the compound, how does the IC50 (TNF-α by ELISA) read?
A: Its IC50 is < 0.1 nM.

Q: `O=C(O[C@@H](Cc1c(Cl)c[n+]([O-])cc1Cl)c1ccc(OC(F)F)c(OCC2CC2)c1)[C@@H]1SCCN1C(=O)c1ccccc1` [Compound 186, 4-((S)-2-((S)-3-benzoylthiazolidine-2-carbonyloxy)-2-(3-(cyclopropylmethoxy)-4-(difluoromethoxy)phenyl)ethyl)-3,5-dichloropyridine 1-oxide] was tested. Which IC50 (TNF-α by ELISA) did it give?
A: The IC50 was 0.1 to 1 nM.

Q: With `COc1ccc(S(=O)(=O)N2CCSC2C(=O)O[C@@H](Cc2c(Cl)c[n+]([O-])cc2Cl)c2ccc(OC(F)F)c(OCC3CC3)c2)cc1N` (stereo partly drawn) [Compound 137, 4-((2S)-2-(3-(3-amino-4-methoxyphenylsulfonyl)thiazolidine-2-carbonyloxy)-2-(3-(cyclopropylmethoxy)-4-(difluoromethoxy)phenyl)ethyl)-3,5-dichloropyridine 1-oxide] as the compound, how does the IC50 (TNF-α by ELISA) read?
A: Its IC50 is 0.1 to 1 nM.

Q: With `Nc1cccc(S(=O)(=O)N2CCS[C@H]2C(=O)O[C@@H](Cc2c(Cl)c[n+]([O-])cc2Cl)c2ccc(OC(F)F)c(OCC3CC3)c2)c1` [Compound 140, 4-((S)-2-((S)-3-(3-aminophenylsulfonyl)thiazolidine-2-carbonyloxy)-2-(3-(cyclopropylmethoxy)-4-(difluoromethoxy)phenyl)ethyl)-3,5-dichloropyridine 1-oxide] as the compound, how does the IC50 (TNF-α by ELISA) read?
A: Its IC50 is < 0.1 nM.

Q: With `Cn1ccnc1S(=O)(=O)N1CCCC[C@H]1C(=O)O[C@@H](Cc1c(Cl)c[n+]([O-])cc1Cl)c1ccc(OC(F)F)c(OCC2CC2)c1` [Compound 116, 3,5-dichloro-4-((S)-2-(3-(cyclopropylmethoxy)-4-(difluoromethoxy)phenyl)-2-((S)-1-(1-methyl-1H-imidazol-2-ylsulfonyl)piperidine-2-carbonyloxy)ethyl)pyridine 1-oxide] as the compound, how does the IC50 (TNF-α by ELISA) read?
A: Its IC50 is < 0.1 nM.

Q: With `CN(C)C(=O)c1cccc(CC(=O)N2CCS[C@H]2C(=O)O[C@@H](Cc2c(Cl)c[n+]([O-])cc2Cl)c2ccc(OC(F)F)c(OCC3CC3)c2)c1` [Compound 198, 3,5-dichloro-4-((S)-2-(3-(cyclopropylmethoxy)-4-(difluoro-methoxy)phenyl)-2-((S)-3-(2-(3-(dimethylcarbamoyl)phenyl)acetyl)-thiazolidine-2-carbonyloxy)ethyl)pyridine 1-oxide] as the compound, how does the IC50 (TNF-α by ELISA) read?
A: Its IC50 is 0.1 to 1 nM.
